Data set [1] relates to stratum corneum of pig skin. The note with it: stratum corneum immersed in 5% solution; weight at 90% relative humidity vs dry weight at 0% relative humidity. The text has this: The epidermis of full thickness pig skin (Animal Technologies, Tyler, Tex.) was removed using a Packard Instruments dermatome, and the stratum corneum was removed via trypsin digestion. Pieces of stratum corneum were then immersed in millipore water, a 5% choline chloride (Aldrich Chemical, Milwaukee, Wis.), or a 5% glycerin solution. Using a dynamic vapour sorption meter (Surface Measurement Systems, Coopersburg, Pa.), the skin was equilibrated under a 0% relative humidity environment until the change in weight varied no more than 0.005% per min. This weight was recorded as the dry weight. The relative humidity was then increased to 90%. The skin was equilibrated at this humidity until the change in weight varied no more than 0.005% per min. This weight was, likewise, recorded and the % water uptake was calculated.

Data set [2] relates to Full thickness Yucatan swine skin. Particulars: (3H3C)-choline in 25% shower gel solution (100 mg choline chloride per 20 ml); two 5 minute applications, each rinsed with 10 ml distilled water.
Description: The radiolabelling experiment described in this example was carried out to quantify the amount of choline that could adhere to the skin following a water rinse. Full thickness Yucatan swine skin (Charles River, Inc., Wilmington, Mass.) was mounted (dermis side down) onto a special sample holder, the dimensions of which were previously described in U.S. Pat. No. 4,836,014. This sample holder exposed approximately 4.91 cm^2 of the skin. A 1 ml aliquot of (^3H3C)-choline (American Radiolabel Chemicals, Inc., St. Louis, Mo.) containing shower gel was next applied to the surface of the exposed skin. […] After five minutes had elapsed, the shower gel was removed, and the surface of the skin was rinsed with 10 ml of distilled water. A second 1 ml aliquot of the (^3H3C)-choline containing shower gel was then reapplied to the skin. Again, after a 5 minute exposure time, the shower gel was removed and the skin rinsed with 10 ml of distilled water. The skin sample was then removed from its sample holder and air-dried for 10 minutes. Four 4 mm diameter punches were collected from each piece of treated skin, oxidized in a Packard oxidizer, and counted in a Packard 2000 Tri-carb liquid scintillation analyzer (Packard Instruments Inc., Downers Grove, Ill.). To obtain the specific activity, 0.1 ml of the (^3H3C)-choline containing shower gel was counted in the Packard 2000 analyzer.

Molecules are shown by their SMILES.

As to `C[N+](C)(C)CCO.[Cl-]` [5% Choline, choline chloride], the “% Water Uptake” value in data set [1] worked out at 89 ± 14%. The “amount of choline remaining on the skin following a water rinse” value in data set [2] is recorded as 33 μg/cm^2.

`OCC(O)CO` [5% Glycerin, glycerin, reference compound]: the “% Water Uptake” value in data set [1] came out at 75 ± 6%.

The values above are taken from patent publication US20020010113A1, “Composition” (Colgate-Palmolive Company, priority 1999, published 2002).
